Consider two compounds from ChEMBL document CHEMBL5653615 (J Biol Chem, 2013).

Experiment [1] deals with Casein kinase I isoform gamma-1 (Homo sapiens) (UniProt Q9HCP0). Description: Inhibition of human CK1g1 at 18.6 nM by HotSpot assay relative to control.
Experiment [2] has as its target Tyrosine-protein kinase CSK (Homo sapiens) (UniProt P41240). Description: Inhibition of human CSK at 18.6 nM by HotSpot assay relative to control.
Experiment [3] addresses T1, Protein kinase C epsilon type (Homo sapiens) (UniProt Q02156).
T1 sequence (whole entry): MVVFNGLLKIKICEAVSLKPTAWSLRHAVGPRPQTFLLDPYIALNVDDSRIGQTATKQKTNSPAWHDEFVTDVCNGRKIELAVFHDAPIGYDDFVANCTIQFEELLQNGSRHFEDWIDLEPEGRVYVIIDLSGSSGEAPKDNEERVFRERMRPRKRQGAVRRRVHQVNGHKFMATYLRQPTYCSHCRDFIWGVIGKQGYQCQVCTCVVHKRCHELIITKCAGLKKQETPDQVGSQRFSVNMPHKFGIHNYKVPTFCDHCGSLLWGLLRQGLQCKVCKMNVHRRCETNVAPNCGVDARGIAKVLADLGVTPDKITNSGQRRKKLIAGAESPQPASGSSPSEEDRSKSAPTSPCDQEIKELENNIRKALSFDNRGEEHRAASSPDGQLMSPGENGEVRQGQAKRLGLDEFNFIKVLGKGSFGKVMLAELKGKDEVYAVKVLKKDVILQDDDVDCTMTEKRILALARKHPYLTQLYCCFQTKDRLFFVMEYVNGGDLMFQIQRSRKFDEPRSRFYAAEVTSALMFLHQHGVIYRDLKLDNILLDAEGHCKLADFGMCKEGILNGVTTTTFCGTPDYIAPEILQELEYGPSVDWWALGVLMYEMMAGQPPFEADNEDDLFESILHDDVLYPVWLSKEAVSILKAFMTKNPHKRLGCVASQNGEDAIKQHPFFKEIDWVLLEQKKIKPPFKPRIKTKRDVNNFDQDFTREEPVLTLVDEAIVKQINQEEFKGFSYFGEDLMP
Description: Inhibition of human PKCepsilon at 18.6 nM by HotSpot assay relative to control.

Experiment [4] addresses Protein-tyrosine kinase 6 (Homo sapiens) (UniProt Q13882). Description: Inhibition of human BRK at 18.6 nM by HotSpot assay relative to control.
Experiment [5] has as its target SRSF protein kinase 2 (Homo sapiens) (UniProt P78362). Briefly: Inhibition of human SRPK2 at 18.6 nM by HotSpot assay relative to control.
Experiment [6] concerns the target T2, Serine/threonine-protein kinase D3 (Homo sapiens) (UniProt O94806).
T2 sequence (whole entry): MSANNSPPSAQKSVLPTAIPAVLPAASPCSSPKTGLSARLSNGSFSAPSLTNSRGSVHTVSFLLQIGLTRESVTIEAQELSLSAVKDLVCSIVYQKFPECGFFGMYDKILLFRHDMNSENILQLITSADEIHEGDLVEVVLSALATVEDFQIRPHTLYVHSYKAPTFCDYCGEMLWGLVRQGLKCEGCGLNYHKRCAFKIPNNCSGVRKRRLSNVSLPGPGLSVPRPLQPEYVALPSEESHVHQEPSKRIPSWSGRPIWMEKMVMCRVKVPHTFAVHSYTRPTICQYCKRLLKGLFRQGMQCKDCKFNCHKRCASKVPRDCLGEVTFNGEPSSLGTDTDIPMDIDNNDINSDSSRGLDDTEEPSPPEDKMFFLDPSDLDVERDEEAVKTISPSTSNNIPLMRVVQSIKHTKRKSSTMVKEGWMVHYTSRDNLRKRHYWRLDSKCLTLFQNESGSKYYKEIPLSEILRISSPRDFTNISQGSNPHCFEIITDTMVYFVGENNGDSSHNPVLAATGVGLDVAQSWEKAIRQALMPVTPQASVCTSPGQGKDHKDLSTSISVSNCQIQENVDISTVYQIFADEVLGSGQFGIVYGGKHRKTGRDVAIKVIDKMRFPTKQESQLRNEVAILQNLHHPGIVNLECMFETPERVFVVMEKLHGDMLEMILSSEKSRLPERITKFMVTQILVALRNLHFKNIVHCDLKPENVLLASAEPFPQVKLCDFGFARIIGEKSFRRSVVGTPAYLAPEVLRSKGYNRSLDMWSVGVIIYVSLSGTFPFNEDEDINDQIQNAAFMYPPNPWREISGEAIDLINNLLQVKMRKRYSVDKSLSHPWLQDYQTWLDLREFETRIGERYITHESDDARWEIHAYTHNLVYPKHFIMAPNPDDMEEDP
Description: Inhibition of human PRKD3 at 1.82 nM by HotSpot assay relative to control.

For experiment [7], the target named is T3, Serine/threonine-protein kinase Nek9 (Homo sapiens) (UniProt Q8TD19).
T3 sequence (whole entry): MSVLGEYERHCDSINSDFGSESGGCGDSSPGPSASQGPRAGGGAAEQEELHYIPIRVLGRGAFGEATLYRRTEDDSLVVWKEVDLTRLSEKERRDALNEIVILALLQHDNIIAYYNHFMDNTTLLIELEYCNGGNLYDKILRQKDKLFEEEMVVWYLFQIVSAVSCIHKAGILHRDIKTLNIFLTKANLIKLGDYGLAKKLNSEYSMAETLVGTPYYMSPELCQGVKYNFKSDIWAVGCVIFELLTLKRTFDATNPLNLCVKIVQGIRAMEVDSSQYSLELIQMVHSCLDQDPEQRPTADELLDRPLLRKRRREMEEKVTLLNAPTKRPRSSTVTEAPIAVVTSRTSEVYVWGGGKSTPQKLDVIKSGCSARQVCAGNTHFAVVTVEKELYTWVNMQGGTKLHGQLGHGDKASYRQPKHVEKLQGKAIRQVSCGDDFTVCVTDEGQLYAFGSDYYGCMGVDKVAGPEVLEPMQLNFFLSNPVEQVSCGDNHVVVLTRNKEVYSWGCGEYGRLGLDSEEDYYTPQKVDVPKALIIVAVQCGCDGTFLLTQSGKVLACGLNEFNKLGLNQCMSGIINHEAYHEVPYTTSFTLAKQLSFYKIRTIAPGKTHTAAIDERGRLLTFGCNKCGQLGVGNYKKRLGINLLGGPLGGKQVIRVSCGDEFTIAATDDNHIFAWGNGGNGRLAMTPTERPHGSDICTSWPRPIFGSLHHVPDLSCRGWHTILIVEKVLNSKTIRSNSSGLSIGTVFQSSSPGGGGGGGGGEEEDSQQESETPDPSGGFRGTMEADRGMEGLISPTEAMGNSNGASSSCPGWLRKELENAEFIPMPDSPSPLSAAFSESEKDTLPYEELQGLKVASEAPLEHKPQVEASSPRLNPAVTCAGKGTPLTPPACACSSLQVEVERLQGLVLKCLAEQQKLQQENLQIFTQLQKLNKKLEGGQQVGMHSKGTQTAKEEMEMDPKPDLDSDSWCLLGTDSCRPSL
Description: Inhibition of human NEK9 at 1.82 nM by HotSpot assay relative to control.

Tyrosine-protein kinase CSK (Homo sapiens), sequence (P41240 2-450 limits assumed): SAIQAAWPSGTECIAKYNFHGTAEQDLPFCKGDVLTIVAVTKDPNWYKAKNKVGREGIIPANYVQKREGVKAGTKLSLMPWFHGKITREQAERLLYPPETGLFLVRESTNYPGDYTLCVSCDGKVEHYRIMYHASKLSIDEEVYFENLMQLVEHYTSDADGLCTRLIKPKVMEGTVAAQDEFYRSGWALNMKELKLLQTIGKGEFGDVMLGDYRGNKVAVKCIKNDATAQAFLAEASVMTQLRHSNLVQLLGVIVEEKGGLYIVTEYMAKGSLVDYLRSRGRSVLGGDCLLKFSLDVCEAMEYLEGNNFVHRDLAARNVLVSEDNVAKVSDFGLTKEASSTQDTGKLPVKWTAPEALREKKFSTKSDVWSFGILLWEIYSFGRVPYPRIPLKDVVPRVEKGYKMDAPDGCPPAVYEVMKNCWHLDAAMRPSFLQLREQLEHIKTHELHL
SRSF protein kinase 2 (Homo sapiens), sequence (P78362 whole entry, looked up): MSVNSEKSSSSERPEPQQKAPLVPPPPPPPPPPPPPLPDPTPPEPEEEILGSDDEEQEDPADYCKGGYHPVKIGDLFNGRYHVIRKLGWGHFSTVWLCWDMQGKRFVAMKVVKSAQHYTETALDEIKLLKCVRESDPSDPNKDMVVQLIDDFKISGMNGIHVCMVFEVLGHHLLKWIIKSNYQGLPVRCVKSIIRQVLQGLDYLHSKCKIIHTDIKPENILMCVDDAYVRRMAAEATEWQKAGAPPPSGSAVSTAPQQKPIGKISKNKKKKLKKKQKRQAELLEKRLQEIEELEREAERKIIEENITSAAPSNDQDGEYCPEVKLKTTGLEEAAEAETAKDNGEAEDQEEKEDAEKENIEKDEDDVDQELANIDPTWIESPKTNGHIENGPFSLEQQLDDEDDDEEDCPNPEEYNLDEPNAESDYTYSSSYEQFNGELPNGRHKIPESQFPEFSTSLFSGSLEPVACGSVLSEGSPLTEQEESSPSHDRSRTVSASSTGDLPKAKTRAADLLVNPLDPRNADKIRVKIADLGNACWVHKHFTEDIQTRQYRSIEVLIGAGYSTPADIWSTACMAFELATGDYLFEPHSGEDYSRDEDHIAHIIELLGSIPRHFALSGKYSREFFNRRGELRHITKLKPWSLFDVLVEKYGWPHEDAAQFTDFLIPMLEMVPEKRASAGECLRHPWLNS
Casein kinase I isoform gamma-1 (Homo sapiens), sequence (Q9HCP0 whole entry, looked up, canonical isoform): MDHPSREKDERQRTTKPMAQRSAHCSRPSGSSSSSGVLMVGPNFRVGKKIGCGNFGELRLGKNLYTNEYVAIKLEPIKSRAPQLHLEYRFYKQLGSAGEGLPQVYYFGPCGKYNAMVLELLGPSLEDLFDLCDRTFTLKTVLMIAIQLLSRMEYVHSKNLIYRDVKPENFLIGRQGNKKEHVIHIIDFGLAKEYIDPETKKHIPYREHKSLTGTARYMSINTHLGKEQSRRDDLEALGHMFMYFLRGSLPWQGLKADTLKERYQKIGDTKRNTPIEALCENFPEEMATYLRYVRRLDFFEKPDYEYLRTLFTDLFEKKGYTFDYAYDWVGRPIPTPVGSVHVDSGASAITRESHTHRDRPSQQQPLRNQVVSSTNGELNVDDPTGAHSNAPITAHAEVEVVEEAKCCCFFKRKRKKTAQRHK
Protein-tyrosine kinase 6 (Homo sapiens), sequence (Q13882 whole entry, looked up): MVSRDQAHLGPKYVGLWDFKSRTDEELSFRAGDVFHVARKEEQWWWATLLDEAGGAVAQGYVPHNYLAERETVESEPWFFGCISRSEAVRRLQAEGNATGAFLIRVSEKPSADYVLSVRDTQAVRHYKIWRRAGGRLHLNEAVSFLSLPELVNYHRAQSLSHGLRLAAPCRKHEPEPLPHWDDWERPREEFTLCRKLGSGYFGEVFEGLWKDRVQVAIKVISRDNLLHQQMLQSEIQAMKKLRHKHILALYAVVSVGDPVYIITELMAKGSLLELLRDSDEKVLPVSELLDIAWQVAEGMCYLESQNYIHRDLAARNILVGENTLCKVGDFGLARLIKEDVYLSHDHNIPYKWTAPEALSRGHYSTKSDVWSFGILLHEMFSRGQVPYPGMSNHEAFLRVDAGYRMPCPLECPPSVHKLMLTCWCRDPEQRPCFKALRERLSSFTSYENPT

For orientation: inhibition means the change of the read-out against control, counted positive when it falls. For `C[C@]1(O)C[C@@H](c2nc(-c3ccc4ccc(-c5ccccc5)nc4c3)c3c(N)nccn32)C1`, the inhibition in experiment [1] is -0.6%; in experiment [2], 3.89%; in experiment [3] it was -9.61%; in experiment [4], 3.64%; in experiment [5], -1.64%.
In the case of `C[C@@]1(C(=O)Nc2ccc(F)nc2)CCCN1c1nc(Nc2cc(C3CC3)n[nH]2)c2cccn2n1`, the inhibition is 2.81% in experiment [6] and -1.18% in experiment [7].
